# Source: patent US20020127228A1, “PGT and apoptosis” (WELFIDE CORPORATION, priority 1998, published 2002)
# Entries after “also recorded” stand apart in the source; their conditions may differ.
# Columns and labels:
# PGT = biological target: T1, PGT (Rattus norvegicus, UniProt Q00910); experiment: Uptake of tritium-labelled PGE1 into differentiated PC12 cells through PGT; type: cell-based
# T1 construct: endogenous in cells; host or cells: differentiated PC12 cells
# Method: 1) Differentiated PC12 cells and tritium-labelled PGE1 (added concentration: 0.1 μM) were subjected to 10 mins of incubation at 37° C. Afterwards, the cells were washed with ice-cold phosphate buffered saline containing 5 g/l of bovine serum albumin and next washed with ice-cold phosphate buffered saline. Then, radioactivity was measured. The amount of PGE1 uptake into PC12 cells was calculated.
# 2) Bromcresol green (hereinafter noted as “BrCG”), which is a PGT inhibitor, was placed together in the culture medium at the addition of PGE1. Afterwards, treatment was conducted in the same manner as mentioned in 1).
# 3) The antisense oligonucleotide specific to PGT cDNA was designed as follows:
# Moreover, said antisense was thioate modified. Using Lipofectin (Gibco), PC12 underwent transfection during 2 days prior to the addition of PGE1. Afterwards, treatment was conducted in the same manner as mentioned in 1).
# SAPK/JNK = SAPK/JNK activation in PC12 cells after NGF withdrawal, Western blot; type: cell-based, rat; conditions: added with PGE1
# Method: 4) Intercellular signals via SAPK/JNK Stress-activated protein kinase/Jun N-terminal kinase (abbreviated SAPK/JNK) is associated with apoptosis induction. Thus, intercellular signals within cells via SAPK/JNK were investigated based upon effects with respect to variations in SAPK/JNK activity.
# The present experiment was performed with Western blot analysis. Individual additives were added to cell culturing medium for PC12 cells in accordance with the aforementioned experiment. Culturing was performed for 1-4 hrs after withdrawal of NGF. PC12 cells were lysed with a buffer solution, centrifuged, and the supernatant of cell lysate was prepared. After said supernatant was incubated with JNK 1 polyclonal antibodies (Santa Cruz Biotechnology) at 4° C. for 1 hr. Protein A sepharose was added to it. The resultant was incubated for 1 hr and the immunoprecipitate as described below was provided. […] of cell lysate was conducted with SDS-PAGE electrophoresis, and transferred to a nylon membrane (Amersham Pharmacia Biotech). Blotting of phosphorylated (active) JNK antibodies (Santa Cruz Biotechnology) was performed with this membrane, and bands were detected in accordance with the instruction manual. Intercellular signals within cells were amplified by chemiluminescence and auto radioactivity methods (FCL, Amersham Pharmacia Biotech).
# [1] = test system: rat cerebral cortical neurons; experiment: Apoptosis induced by amyloid beta peptide in rat cerebral cortical neurons, Hoechst 33342; type: cell-based; conditions: for Inhibition of apoptosis induction (%): Experiment 7, test drug added with Aged-Aβ25-35
# Method: The cortex region of embryonic day 17 or 18 rat cerebrum was extracted on ice. Cells were dispersed using a neuron dispersal solution (Sumilon) after sectioning. Afterwards, cells were dispersed to a density of 1.5×10^5 cells/cm^2 in a culturing flask that was coated with polyethyleneimine beforehand. After 4 days of culturing, the following experiment was provided. Therefore, as the culture medium, Neurobasal medium (Gibco) adding with B27 supplement (1/50 volume), 2-mercaptoethanol (27.5 μM), L-glutamic acid (25 μM), and glutamine (0.5 mM) was used.
# Amyloid beta peptide 25-35 (Aβ25-35) was dissolved in distilled water to a concentration of 1 mM, incubated for 1 week at about 37° C., and Aged-Aβ25-35 was prepared. The induction of apoptosis in neuron was performed by the replacement of the aforementioned culture medium (with the exception of L-glutamicacid) containing 10 μM Aged-Aβ25-35.
# 4) It was investigated that the suppressing effect of PGE1 on apoptosis induced by amyloid beta peptide. After dissolution of PGE1 in ethanol, when the aforementioned 2) Aged-Aβ25-35 was added to the culture medium, simultaneously PGE1 solution was added to it. The final concentration thereof was 1 μM.
# Cells were washed with PBS (−) at 24 hrs after induction of apoptosis and fixed for 30 mins at room temperature using a 1% glutaraldehyde solution (in PBS). Next, cell were washed with PBS (−) two times and followed by incubation with 1 mM Hoechst 33342 solution (in PBS) for 2 mins. Afterwards, observation of nuclear chromatin morphology was conducted using a fluorescence microscope with 4 arbitrary visual fields. Normal cells and apoptotic cells (cell where chromatin fragmentation or condensation was appeared) were counted, and the ratio was calculated as the incidence of apoptosis. The n was 3.
# 6) The relationship between PGT inhibitors and apoptosis induced by amyloid beta peptide was investigated. BrCG, which is a PGT inhibitor, with a final concentration of 60 μM was added simultaneously with PGE1 but other manners were in accordance with the aforementioned ones in 1)-5).
# It was investigated that the influence of PGT antisense on the inhibitory effect of PGE1 against apoptosis induced by amyloid beta peptide. PGT antisense was used as it is with regard to the oligonucleotide in Experiment 3. The addition concentration thereof was 1.5 μM. Incidence of apoptosis was performed in accordance with Experiment 5. Then was 3.
# 1) Drugs having an inhibitory activity against induction of apoptosis by amyloid beta peptide were investigated. After dissolving test drugs (PGE1, PGK1, PGK2, and bicyclo PGE2) in ethanol, when Aged-Aβ25-35 was added to the culture medium, simultaneously test drug solution were added to it. But other manners were in accordance with Experiment 5. Ratio of normal cells and apoptotic cells allowed calculation of the rate of inhibition of apoptosis induction.
# NRK52E cells = experiment: Apoptosis induced by NO donor GSNO in NRK52E kidney cells; type: cell-based, rat; conditions: for Effect on apoptosis in kidney cells (in words): NO donor GSNO
# Method: 1) Apoptosis was induced by NO (nitrogen monoxide) in kidney cells. NRK52E cells, which are established from a rat renal tubule epithelial cell line, mainly derived from distal were cultured for 24 hours with a chamber slide that was coated with type-I collagen. Afterwards, the cultured medium was changed to a serum-free medium, and apoptosis was induced by addition of NOC12 (0.4 mM) or S-nitroso L-glutathione (GSNO: 1 mM), which are NO donors.
# 4) Inhibitory effect of PGE1 to the induction of apoptosis in kidney cells was investigated PGE1 was added simultaneously with the addition of a NO donor to a final concentration of 1 or 10 μM. After 24 hrs, cells were fixed with a 1% glutaraldehyde solution and stained with Hoechst 33342. Three visual fields were selected arbitrarily per slide, and the ratio of the cells count where nuclear fragmentation and condensation appeared was calculated with respect to the total cells in the field (magnification: 400x). The n was 5.
# 5) The relationship between PGT inhibitors and kidney cell apoptosis induced by GSNO was examined. With a final concentration of BrCG, which is a PGT inhibitor, of 60 μM, manners other than simultaneous addition with GSNO and PGE1 were in accordance with the aforementioned ones in 4). The PGE1 final concentration was 1 μM. The n was 3.
# 1) Drugs having suppressing activity on apoptosis inducted in kidney cells by an NO donor were investigated. PGK1 and bicyclo PGE2 were used as test drugs, but other manners were in accordance with Experiment 8. The final concentration of the test drugs was 1 μM. The n was 5.
# 2) It was investigated the effects of a PGT inhibitor on the apoptosis-suppressing activity of PGK1 and bicyclo PGE2 in kidney cells. With a final concentration of BrCG, which is a PGT inhibitor, of 60 μM, manners other than simultaneous addition of GSNO and test drugs were in accordance with the aforementioned methods in 1). The n was 4.
# [2] = Hypotensive effect in anesthetized normal rats, mean blood pressure; type: in vivo, rat; set-up: Decrease in blood pressure: unit not given here; conditions: for Decrease in blood pressure: 100 μg/kg body weight into caudal artery, mean blood pressure before and after, n 3; for Hypotensive effect (in words): dose that suppresses apoptosis sufficiently
# Method: 2) The hypotensive effect of the test drugs was examined. After anesthetizing normal rats (male, body weight of about 300 g) with intraperitoneal administration of Nembutal, the dorsal region was fixed. Next, a cannula was inserted in the carotid artery and blood pressure was measured through a transducer (Nihon Kohden Corporation); simultaneous recording was made in combination with a polygraph (Nihon Kohden Corporation). After dissolving the test drugs in ethanol, and diluted (x200) with saline. Administration was given in the caudal artery in a dose of 100 μg/kg body weight. The mean blood pressure (MBP) was measured. The decrease in blood pressure was calculated from the measured values before and after administration. The n was 3 per group.
# [3] = test system: differentiated PC12 cells; experiment: Induction of apoptosis by PGT antisense in differentiated PC12 cells, TUNEL staining; type: cell-based, rat
# Method: 1) Rat adrenal pheochromocytoma PC12 cells (obtained by: ATCC; importer: Dainippon Pharmaceutical) was cultured in a Neurobasal culture medium containing mouse β NGF (100 ng/ml), N2 supplement (1%), and TIP (5 μg/ml transferrin, 5 μg/ml insulin, and 10 ng/ml progesterone). Differentiation of neuron was performed.
# 2) Then, antisense solution prepared in Example 6 is added (final concentration: 600 nM) and cultured for 2 days. As a negative control, Lipofectin in alone is added in the same manner and cultured for the same period of time. Apoptosis detection is performed by TUNEL staining after cell fixation (room temperature for 30 min) with a 10% neutral formalin buffer solution. Observation was made from 6 arbitrary visual fields using a light microscope. Total cells and TUNEL (apoptosis)—positive cells were counted, and the incidence of apoptosis was calculated.
# [4] = Table 13, GSNO, test drug 1 μM, n 5
# [5] = Tables 14 and 15, GSNO, test drug alone, n 4
compound,measurement,setting,value
"Cc1c(C2(c3cc(Br)c(O)c(Br)c3C)OS(=O)(=O)c3ccccc32)cc(Br)c(O)c1Br [BrCG, Bromcresol green]",Amount of PGE1 uptake,PGT; PGE1 0.1 μM with BrCG 1 μM,60 ± 15 fmol/mg protein/10 mins
same,Amount of PGE1 uptake,"PGT; PGE1 0.1 μM with BrCG 1 μM (second row, printed so)",20 ± 8 fmol/mg protein/10 mins
same,Effect on PGE1 suppression of SAPK/JNK activation (in words),SAPK/JNK,inhibited PGE1-suppressing effect
same,Effect on PGE1 inhibition of amyloid beta peptide-induced apoptosis (in words),[1]; BrCG 60 μM with PGE1,inhibited said effect of PGE1
same,Effect on apoptosis-suppressing activity of the test drug in kidney cells (in words),"NRK52E cells; BrCG 60 μM, GSNO",inhibited apoptosis-suppressing activity by PGE1; also recorded: partially inhibited apoptosis-suppressing effect
CCCCC[C@H](O)/C=C/[C@H]1C(=O)CC(=O)[C@@H]1CCCCCCC(=O)O [PGK1],Effect on apoptosis induced by amyloid beta peptide (in words),[1],displayed activity to suppress apoptosis of neurons
same,Inhibition of apoptosis induction (%),[1],45.4%
same,Decrease in blood pressure,[2],−5
same,Hypotensive effect (in words),[2],substantially causes no decrease in blood pressure
same,Effect on apoptosis in kidney cells (in words),NRK52E cells,suppressed apoptosis induced by GSNO in kidney cells
same,Incidence of apoptosis (%),NRK52E cells; [4],8 ± 1 %
same,Incidence of apoptosis (%),NRK52E cells; [5],8 ± 1%
CCCCC[C@H](O)/C=C/[C@H]1C(=O)CC(=O)[C@@H]1C/C=C\CCCC(=O)O [PGK2],Effect on apoptosis induced by amyloid beta peptide (in words),[1],displayed activity to suppress apoptosis of neurons
same,Inhibition of apoptosis induction (%),[1],36.2%
same,Decrease in blood pressure,[2],+2
same,Hypotensive effect (in words),[2],substantially causes no decrease in blood pressure
CCCCC1C(=O)CC[C@H]2[C@@H]1CC(=O)[C@@H]2C/C=C\CCCC(=O)O (stereo partly shown) [bicyclo PGE2],Effect on apoptosis induced by amyloid beta peptide (in words),[1],displayed activity to suppress apoptosis of neurons
same,Inhibition of apoptosis induction (%),[1],40.6%
same,Decrease in blood pressure,[2],0
same,Hypotensive effect (in words),[2],substantially causes no decrease in blood pressure
same,Effect on apoptosis in kidney cells (in words),NRK52E cells,suppressed apoptosis induced by GSNO in kidney cells
same,Incidence of apoptosis (%),NRK52E cells; [4],6 ± 1 %
same,Incidence of apoptosis (%),NRK52E cells; [5],9 ± 2%
"PGT antisense: antisense oligonucleotide specific to PGT, 5′-GGCTTGAGCAGGAGCCCCAT-3′, thioate modified, used with Lipofectin (all phosphorothioate, sugars by position and methylation of C not given here)",Amount of PGE1 uptake,"PGT; PGE1 0.1 μM, antisense 0.5 μM transfected 2 days before",56 ± 17 fmol/mg protein/10 mins
same,Amount of PGE1 uptake,"PGT; PGE1 0.1 μM, antisense 1.5 μM transfected 2 days before",14 ± 14 fmol/mg protein/10 mins
same,Effect on PGE1 suppression of SAPK/JNK activation (in words),SAPK/JNK,inhibited PGE1-suppressing effect
same,TUNEL-positive cells (%),"[3]; antisense 600 nM, cultured 2 days",12.9 ± 1.1%
same,Induction of apoptosis (in words),[3]; antisense addition,apoptosis have been induced
